The text below walks through data of patent publication US9938249B2, “Anti-amyloid compounds containing benzofurazan” (Treventis Corporation, priority 2014, dated 2018).

Chain of Terminally biotinylated beta-amyloid (Aβ42) (P05067 672-713, species assumed): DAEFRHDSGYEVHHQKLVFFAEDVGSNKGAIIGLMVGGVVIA

The test addresses Terminally biotinylated beta-amyloid (Aβ42) (Homo sapiens, UniProt P05067). Kind of test: Aβ42 biotinylated (biotin-AB) oligomerization assay, NeutrAvidin capture ELISA. The format is biochemical. To be noted: approximate value; 1 hr oligomerization at room temperature; read-out: IC50 Aβ 42-bio. How it is done:
Aβ42 Biotinylated Assay Terminally biotinylated beta-amyloid (biotin-AB) was dissolved in HFIP at the concentration of 1 mg/ml and aliquoted to 50 μl/tube in 0.65 ml colored microfuge tubes (Fisher 02-681-248). The aliquots were diluted immediately by adding 450 μl of HFIP to 0.1 mg/ml. Approximately 46 ul (containing approximately 4.6 ug of biotin-AB) were taken from a tube, 100 ul of HFIP added, vortexed, and dried to a thin film under an N2 stream. 100 μl of trifluoroacetic acid (TFA) was added and vortexed. After 10 minute incubation at room temperature in a hood, resulting in disaggregation of seeds, the sample was vortexed again and dried again to a thin film under an N2 stream. 100 μl of HFIP was added, mixed, and the biotin-AB sample was dried for a third time under an N2 stream to remove residual TFA. The treated biotin-AB was dissolved in DMSO to a final peptide concentration of […] (SOX). An ELISA “capture” plate (Costar 9018) was coated with 50 μl of 1 μg/ml NeutrAvidin™ (NA) in 10 mM sodium phosphate buffer, pH 7.5. (NeutrAvidin can be prepared as 1 mg/ml (1000×) in milliQ water/10% glycerol and stored at −80° C. before use.) The plate was sealed plate with adhesive film and stored at 4° C. overnight, then blocked for 2 hours (unsealed) at room temperature with 200 μl/well OFB+0.1% v/v Tween 20. The “capture” plate was allowed to come to room temperature. Several dilutions of test compound were prepared with 100% DMSO, according to the desired concentration to be tested. 2.5 μl of diluted test compound was pipetted into the bottom of each well of a 96-well “dilution” polypropylene plate (Costar 3365), to which was added 250 ul of Oligomer Formation Buffer (OFB: 20 mM sodium phosphate, pH 7.5-150 mM NaCl). To begin oligomerization, 2 μl/well of the biotin-AB was added to the bottom of each well of a 96-well “reaction” polypropylene plate (Costar 3365) and 100 ul of each well of the “dilution” plate was transferred to the “reaction” plate (final concentration of DMSO being up to 1%). The reaction plate was sealed and incubated for 1 hr at room temperature without shaking. The reaction was then stopped by the addition of 50 ul of 0.3% Tween 20 in water. The “capture” plate blocking solution was removed, and 50 ul of each well of the “reaction” plate was transferred to each well of the “capture” plate. The “capture” plate was sealed and incubated for 2 hours at room temperature with shaking at 150 rpm. The “capture” plate was then washed on a plate washer (3×) with 200 ul/well TBST (20 mM Tris-HCL, pH 7.5/150 mM NaCl/0.1% Tween 20). 50 ul of Streptavidin-horseradish […] (1:20,000 dilution) in OFB+0.1% Tween 20 was added to each well, the “capture” plate was sealed and incubated for 1 hr with shaking at 150 rpm. As before, the plate was washed, then 100 ul of TMB/H2O2 substrate solution was added to each well. After 5-10 minutes, 100 ul of 1% v/v sulfuric acid was added and the absorbance of each well was read at 450 nm using a standard plate reader. Data is summarized in the table below; numbers given in parenthesis for the Aβ 40 Thioflavin T assays are the values in that particular experiment for compound ID 1027, given as the first entry in this table for structural comparison. “IC50 Aβ42-bio” column refers to the approximate value of the Aβ42 biotinylated assay IC50 in micromoles/L.
`CC(c1cc(N2CC(CN3CCCC3)C2)c2nonc2c1)N(C1CC1)S(C)(=O)=O` (centres unmarked) [compound 1549]: the half-maximal inhibitory concentration (IC50) (as a rule, the concentration that inhibits the measured activity by half) stood at 5.5 µM.
Take `OC(c1ccncc1-c1cc(N2CC(CN3CCOCC3)C2)c2nonc2c1)C(F)(F)F` (centres unmarked) [compound 1636, 2,2,2-trifluoro-1-(3-(7-(3-(morpholinomethyl)azetidin-1-yl)benzo[c][1,2,5]oxadiazol-5-yl)pyridin-4-yl) ethan-1-ol]: the IC50 worked out at 10.3 µM.
In the case of `c1nc(-c2cc(N3CC(CN4CCCC4)C3)c3nonc3c2)cs1` [compound 1561] it was 6.9 µM.
Under `OC(c1csc(-c2cc(N3CC(CN4CCOCC4)C3)c3nonc3c2)n1)C(F)(F)F` (centres unmarked) [compound 1626] stands 10.9 µM; under `OC(c1ncc(-c2cc(N3CC(CN4CCOCC4)C3)c3nonc3c2)o1)C(F)(F)F` (centres unmarked) [compound 1677], 26.1 µM; under `N#Cc1ccc(-c2cc(N3CC(CN4CCOCC4)C3)c3nonc3c2)cc1` [compound 1574, 4-(7-(3-(morpholinomethyl)azetidin-1-yl)benzo[c][1,2,5]oxadiazol-5-yl)benzonitrile], 16.5 µM.
`CN(C)C(=O)c1ccccc1-c1cc(N2CC(CN3CCOCC3)C2)c2nonc2c1` [compound 1615]: the IC50 is over 20 µM.
For the molecule `Cc1ccc(C)c(-c2cc(N3CC(CN4CCCC4)C3)c3nonc3c2)c1` [compound 1559], the IC50 was 7.6 µM.
In the case of `OCc1ccccc1-c1cc(N2CC(CN3CCOCC3)C2)c2nonc2c1` [compound 1572] it was over 20 µM.
With `CC(=O)NC1CCN(c2cc(-c3ccc(C4(O)COC4)cc3)cc3nonc23)CC1` [compound 1735], the concentration for half-maximal inhibition (IC50) stood at 2.4 µM.
Under `OC(c1ncccc1-c1cc(N2CC(CN3CCOCC3)C2)c2nonc2c1)C(F)(F)F` (centres unmarked) [compound 1569, 2,2,2-trifluoro-1-(3-(7-(3-(morpholinomethyl)azetidin-1-yl)benzo[c][1,2,5]oxadiazol-5-yl)pyridin-2-yl) ethan-1-ol] stands 11.5 µM; under `OC1(c2ccc(-c3cc(N4CCC(CN5CCOCC5)CC4)c4nonc4c3)cc2)COC1` [compound 1736], 9.7 µM; under `OC(c1cnc(-c2cc(N3CC(CN4CCOCC4)C3)c3nonc3c2)s1)C(F)(F)F` (centres unmarked) [compound 1625], 4.2 µM.
In the case of `COc1cc(-c2cc(N3CC(CN4CCOCC4)C3)c3nonc3c2)ccn1` [compound 1659, 6-(2-methoxypyridin-4-yl)-4-(3-(morpholinomethyl)azetidin-1-yl) benzo[c][1,2,5]oxadiazole] it was 12.4 µM; in that of `OCc1coc(-c2cc(N3CC(CN4CCOCC4)C3)c3nonc3c2)n1` [compound 1606, (2-(7-(3-(morpholinomethyl)azetidin-1-yl)benzo[c][1,2,5]oxadiazol-5-yl)oxazol-4-yl)methanol], over 20 µM; in that of `OC(c1ccnc(-c2cc(N3CC(CN4CCOCC4)C3)c3nonc3c2)c1)C(F)(F)F` (centres unmarked) [compound 1620, 2,2,2-trifluoro-1-(2-(7-(3-(morpholinomethyl)azetidin-1-yl)benzo[c][1,2,5]oxadiazol-5-yl)pyridin-4-yl)ethan-1-ol], 11.1 µM.
As for `NC(=O)c1ccc(-c2cc(N3CC(CN4CCCC4)C3)c3nonc3c2)cc1` [compound 1579, 4-(7-(3-(pyrrolidin-1-ylmethyl)azetidin-1-yl)benzo[c][1,2,5]oxadiazol-5-yl)benzamide], the IC50 was determined as 96 µM.
Turning to `NC(=O)c1cccc(-c2cc(N3CC(CN4CCOCC4)C3)c3nonc3c2)c1` [compound 1576, 3-(7-(3-(morpholinomethyl)zetidin-1-yl)benzo[c][1,2,5]oxadiazol-5-yl) benzamide], the IC50 stood at 46 µM.
Regarding `CC(=O)N(C1CC1)C(C)c1cc(N2CC(CN3CCCC3)C2)c2nonc2c1` (centres unmarked) [compound 1550], the IC50 was 5.3 µM.
Turning to `COc1ccc(-c2cc(N3CC(CN4CCOCC4)C3)c3nonc3c2)cc1Cl` [compound 1578, 6-(3-chloro-4-methoxyphenyl)-4-(3-(morpholinomethyl)azetidin-1-yl) benzo[c][1,2,5]oxadiazole], the IC50 was determined as 2.9 µM.
In the case of `OC(c1cc(-c2cc(N3CC(CN4CCOCC4)C3)c3nonc3c2)cs1)C(F)(F)F` (centres unmarked) [compound 1568, 2,2,2-trifluoro-1-(4-(7-(3-(morpholinomethyl)azetidin-1-yl)benzo[c][1,2,5]oxadiazol-5-yl)thiophen-2-yl) ethan-1-ol] it was 5.5 µM; in that of `CN1CCCCC1c1cc(N2CC(CN3CCCC3)C2)c2nonc2c1` (centres unmarked) [compound 1557], 18.7 µM.
In the case of `OC1(c2cc(N3CC(CN4CCOCC4)C3)c3nonc3c2)CC(OCc2ccccc2)C1` (centres unmarked) [compound 1692, 3-(benzyloxy)-1-(7-(3-(morpholinomethyl)azetidin-1-yl)benzo[c][1,2,5]oxadiazol-5-yl) cyclobutan-1-ol] it was 5.6 µM.
As for `OC(c1ccc(-c2cc(N3CC(CN4CCOCC4)C3)c3nonc3c2)s1)C(F)(F)F` (centres unmarked) [compound 1562, 2,2,2-trifluoro-1-(5-(7-(3-(morpholinomethyl)azetidin-1-yl)benzo[c][1,2,5]oxadiazol-5-yl)thiophen-2-yl)ethan-1-ol], the IC50 was 2.7 µM.
As for `OC(c1ccc(-c2cc(N3CC(CN4CCCC4)C3)c3nonc3c2)nc1)C(F)(F)F` (centres unmarked) [compound 1545], the IC50 came out at 8.4 µM.
Turning to `OC(/C=C/c1cc(N2CC(CN3CCOCC3)C2)c2nonc2c1)C(F)(F)F` (centres unmarked) [compound 1665, (E)-1,1,1-trifluoro-4-(7-(3-(morpholinomethyl)azetidin-1-yl)benzo[c][1,2,5]oxadiazol-5-yl)but-3-en-2-ol], the IC50 is 21.8 µM.
As for `OCc1cnc(-c2cc(N3CC(CN4CCOCC4)C3)c3nonc3c2)o1` [compound 1607, (2-(7-(3-(morpholinomethyl)azetidin-1-yl)benzo[c][1,2,5]oxadiazol-5-yl)oxazol-5-yl)methanol], the IC50 was over 20 µM.
Take `OC1(c2ccc(-c3cc(N4CC(CN5CCOCC5)C4)c4nonc4c3)cc2)COC1` [compound 1639]: the IC50 is 3.2 µM.
In the case of `OCc1nc(-c2cc(N3CC(CN4CCOCC4)C3)c3nonc3c2)no1` [compound 1629], the IC50 was 15.7 µM.
With `CC(C)(O)c1nc(-c2cc(N3CC(CN4CCOCC4)C3)c3nonc3c2)no1` [compound 1628], the IC50 was determined as 33.1 µM.
Turning to `OC(CCc1cc(N2CC(CN3CCCC3)C2)c2nonc2c1)C(F)(F)F` (centres unmarked) [compound 1553], the IC50 amounted to 12.1 µM.
As to `CC(NC1CC1)c1cc(N2CC(CN3CCCC3)C2)c2nonc2c1` (centres unmarked) [compound 1551], the IC50 is 6.8 µM.
In the case of `OCc1ccc(-c2cc(N3CC(CN4CCOCC4)C3)c3nonc3c2)cc1` [compound 1592] it was 15.1 µM.
Under `OC(c1cccc(-c2cc(N3CC(CN4CCOCC4)C3)c3nonc3c2)n1)C(F)(F)F` (centres unmarked) [compound 1619, 2,2,2-trifluoro-1-(6-(7-(3-(morpholinomethyl)azetidin-1-yl)benzo[c][1,2,5]oxadiazol-5-yl)pyridin-2-yl)ethan-1-ol] stands 11.3 µM; under `OCc1nc(-c2cc(N3CC(CN4CCOCC4)C3)c3nonc3c2)cs1` [compound 1566], over 20 µM.
Turning to `OC1(c2ccc(-c3cc(N4CCC(N5CCOCC5)C4)c4nonc4c3)cc2)COC1` (centres unmarked) [compound 1719], the IC50 was 13 µM.
`N#Cc1cccc(-c2cc(N3CC(CN4CCOCC4)C3)c3nonc3c2)c1` [compound 1577, 3-(7-(3-(morpholinomethyl)azetidin-1-yl)benzo[c][1,2,5]oxadiazol-5-yl)benzonitrile]: the IC50 was 14.8 µM.
For the molecule `c1ccc(-c2cc(N3CC(CN4CCCC4)C3)c3nonc3c2)nc1` [compound 1580, 6-(Pyridin-2-yl)-4-(3-(pyrrolidin-1-ylmethyl)azetidin-1-yl)benzo[c][1,2,5]oxadiazole], the IC50 is over 20 µM.
